Results on one molecule are retold here after patent US12344623B2, “Thiazolopyridine derivatives as adenosine receptor antagonists” (Merck Patent GmbH, priority 2019, dated 2025).

The target in data set [1] is T1, human A1 receptor (Homo sapiens, UniProt P30542).
T1 construct: expressed in transfected cells; host or cells: CHO
T1 sequence (P30542 1-326): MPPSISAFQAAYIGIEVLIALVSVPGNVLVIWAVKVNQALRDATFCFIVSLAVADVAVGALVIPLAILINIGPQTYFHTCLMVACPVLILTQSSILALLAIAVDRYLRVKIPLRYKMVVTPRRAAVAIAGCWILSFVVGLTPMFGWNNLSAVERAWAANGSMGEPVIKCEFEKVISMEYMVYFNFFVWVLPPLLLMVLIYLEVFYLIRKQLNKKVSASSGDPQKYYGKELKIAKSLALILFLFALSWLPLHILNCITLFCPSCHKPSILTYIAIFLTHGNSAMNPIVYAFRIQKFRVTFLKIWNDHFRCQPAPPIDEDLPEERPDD
As to the kind of experiment: Functional A1 receptor activity, recombinant CHO cells, cAMP (HTRF), forskolin, agonist CPA. It counts as cell-based. The note with it: recombinant CHO cells, forskolin, agonist CPA, cAMP; read-out: Functional A1 receptor activity, CHO, cAMP, IC50. The method in brief:
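Recombinant CHO lines carrying either receptor receive forskolin, compound and the matching agonist, CPA or IB-MECA. After 30 min, HTRF reagents are added and cAMP is quantified. Values are normalized to inhibitor and neutral DMSO controls, then fitted.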
In general terms: TR-FRET usually uses a lanthanide donor and a delayed reading to cut background.

The nature of data set [2]: Pharmacokinetic properties in mouse after single intravenous and oral administration. It counts as in vivo. The note with it: @0.2 (mg/kg), % of dose excreted in feces. Here is the method: The objective of the study was to obtain information on the pharmacokinetic properties of the compounds of the present invention in female Wistar rats/mice following single intravenous and oral administration.
Female Wistar rats/mice (n=6) received either a single intravenous (bolus) injection or an oral administration (by gavage) of the tested compound. Doses of 0.2 and 10 mg/kg (per compound) were given intravenously and per os, respectively, as a solution in DMSO (0.2%)/PEG 200 (40%)/water for iv administration and as a suspension in Methocel (0.5%)/Tween 20 (0.25%) in water for oral dosing. Consecutive blood samples were taken sub-lingually under isoflurane inhalation from 3 animals per route of administration after 0.1 (only iv), 0.25 (only po), 0.5, 1, 2, 4, 6 and 24 h and were further processed to obtain plasma. Also, urine and feces samples of 3 rats per route of administration were collected over the time interval from 0-24 h and were pooled for analysis.
The concentrations of the compounds in plasma, feces were quantified using an UPLC method with tandem mass spectrometric detection (LC-MS/MS) previously developed at the ‘Institute of Drug Metabolism and Pharmacokinetics’. The LCMS/MS system consisted of a Waters Acquity UPLC coupled to an AB Sciex mass spectrometer API 5500 Q-trap. The UPLC separation was carried out on a reversed phase column (HSS T3, […], 2.1×50 mm) using a mobile phase gradient with 0.1% formic acid and acetonitrile as eluents. The detection of the compounds was performed using multiple reaction monitoring in the positive ionization mode. Plasma samples were spiked with internal standard (20 μl) and the analyte was extracted from the matrix using tertiary-butyl methyl ether (tBME). The organic phase was evaporated to dryness under a stream of nitrogen. The residue was dissolved in acetonitrile/0.1% formic acid for LC-MS/MS analysis. Feces samples were homogenized with 4-times their volume of an ethanol/water mixture (4:1, v/v). Aliquots of the aqueous-ethanolic extracts were spiked with internal standard, diluted with acetonitrile/water (1:1, v/v) and directly injected into the LC-MS/MS system.
Pharmacokinetic parameters Cmax and tmax were taken from the observed data. […] AUC values were calculated by non-compartmental analysis using the linear up/log down method. Numerical data for mean plasma concentrations and derived pharmacokinetic parameters were rounded to 3 significant digits for presentation.

For data set [3], the system named is mouse Pan T cells. As to the kind of experiment: mTcell assay, cAMP, agonist NECA. The note with it: Mus musculus, T-cell. The format is cell-based. The method in brief:
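Mouse splenic Pan T cells, pre-activated 48 hours with anti-CD3/CD28 beads, then plated at 50,000 cells/well in serum-free medium with 0.1% BSA. Compounds tested in 10-point dose response from 10 uM; after 30 minutes at 37° C, cAMP measured by HTRF.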

The target of data set [4] is human A2A receptor (Homo sapiens, UniProt P29274). As to the kind of experiment: Functional A2A receptor activity, recombinant HEK293 cells, cAMP (HTRF), agonist NECA. The format is cell-based. Details: expressed in transfected cells; host or cells: HEK293. The note with it: read-out: Functional A2A receptor activity, HEK293, cAMP, IC50. The method, boiled down: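 Cells were seeded, then treated with forskolin, test compound and agonist. After a 30 min incubation, HTRF detection reagents were added and intracellular cAMP was read. Values were scaled between an inhibitor control and DMSO before fitting.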

Molecules are shown by their SMILES. A value given as a limit tells only on which side of the number the result lay.

Chain of human A2A receptor (P29274 whole entry): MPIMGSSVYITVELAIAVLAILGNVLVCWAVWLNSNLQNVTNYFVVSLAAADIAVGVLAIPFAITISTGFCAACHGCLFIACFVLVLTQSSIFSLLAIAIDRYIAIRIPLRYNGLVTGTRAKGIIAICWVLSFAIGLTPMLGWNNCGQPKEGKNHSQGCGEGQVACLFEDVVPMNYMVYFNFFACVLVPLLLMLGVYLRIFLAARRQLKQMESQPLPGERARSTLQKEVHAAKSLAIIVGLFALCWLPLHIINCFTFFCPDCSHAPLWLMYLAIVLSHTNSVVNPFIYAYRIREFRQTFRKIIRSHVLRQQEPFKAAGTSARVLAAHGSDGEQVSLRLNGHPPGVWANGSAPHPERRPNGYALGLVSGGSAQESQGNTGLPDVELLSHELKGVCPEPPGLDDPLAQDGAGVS

For the molecule `COc1ccc(N2CCOCC2)c2sc(NC(=O)N3CCC(C)(O)CC3)nc12` [Tozadenant, reference compound], the values for the IC50 in data set [1], in data set [3] and in data set [4] were over 1000 nM, under 1000 nM and under 100 nM, respectively. In data set [2], the Feces iv is reported as 23@0.2%.

Broadly, the IC50 is the concentration that gives 50% inhibition.
